Assay: xn = mol fraction of the nth substance listed

CC[n+]1ccn(C)c1.O=C([O-])C(F)(F)F + O
101 kPa
Settings	electrical conductivity, 298.15 K [S/m]	electrical conductivity, 313.15 K [S/m]	viscosity, 293.15 K [mPa·s]	viscosity, 298.15 K [mPa·s]	viscosity, 303.15 K [mPa·s]	viscosity, 313.15 K [mPa·s]
x1 = 0.001	0.3	0.41	1.01	0.9	0.8	0.66
x1 = 0.003	0.79	1.1	1.05	0.93	0.84	0.69
x1 = 0.004	1.2	1.6	1.1	0.98	0.87	0.72
x1 = 0.006	1.6	2.2	1.16	1.03	0.92	0.75
x1 = 0.009	2	2.5	1.24	1.1	0.98	0.81
x1 = 0.014	2.6	3.7	1.4	1.25	1.12	0.92
x1 = 0.02	3.1	4.4	1.57	1.4	1.2	0.97
x1 = 0.033	4	5.6	2.01	1.75	1.54	1.21
x1 = 0.051	4.4	6.6	2.53	2.2	1.92	1.5
x1 = 0.065	4.6	6.9	3	2.58	2.24	1.74
x1 = 0.108	4.5	6.9	4.39	3.76	3.25	2.49
x1 = 0.159	4.2	6.3	6.17	5.28	4.55	3.46
x1 = 0.243	3.5	5.3	8.98	7.65	6.56	4.96
x1 = 0.406	2.5	3.7	–	–	–	–
x1 = 0.418	–	–	14.4	12.3	10.6	8
x1 = 0.502	2.2	3.4	17.3	14.8	12.6	9.5
x1 = 0.53	2	3.1	18.7	15.9	13.6	10.2
x1 = 0.759	1.5	2.3	26.8	22.7	19.3	14.3
x1 = 1	1	1.6	39.5	32.9	27.5	19.9

CCCCCC[n+]1ccn(C)c1.F[B-](F)(F)F + CC(C)O
101 kPa
Settings	viscosity [mPa·s]
293.15 K, x2 = 0.9165	3.61
303.15 K, x2 = 0.1493	68.1
303.15 K, x2 = 0.3752	26.9
303.15 K, x2 = 0.5845	11.6
303.15 K, x2 = 0.7067	7.02
303.15 K, x2 = 0.762	5.47
313.15 K, x2 = 0.2992	24.9
313.15 K, x2 = 0.762	3.99
323.15 K, x2 = 0	50.3
323.15 K, x2 = 0.2289	21.4
323.15 K, x2 = 0.2992	18.8
333.15 K, x2 = 0	34
333.15 K, x2 = 0.1493	20.7
333.15 K, x2 = 0.3752	10.33
333.15 K, x2 = 0.762	2.35

CCn1cc[n+](C)c1.C[C@H](O)C(=O)[O-] + O
298.15 K, 100 kPa
Settings	viscosity [mPa·s]
x2 = 0.3138	32.5
x2 = 0.9696	1.82

From the CheMixHub ionic liquid set
